Test results published in ChEMBL document CHEMBL3885861, “Open TG-GATES”.

Species on record: Rattus norvegicus
Assay: Open TG-GATES - Regimen: Daily Repeat
Type: toxicity, organism-based, Sprague-Dawley
Design: regimen Daily Repeat, gender Male, age 6 weeks
Conditions: in vivo, po, route gavage; for Bas / Eos / Fbg / Ht / MCHC / Mono / Plat / RBC / Ret / WBC / MCV: tissue Blood; for KIDNEY_L / KIDNEY_R / KIDNEY_TOTAL: tissue Kidney; for ALT / AST / CRE / DBIL / GLC / IP / K / LDH / PL / RALB / TBIL / TC / TG / TP / gamma-GTP: tissue Plasma
[1] = 100 mg/kg, 72 h, dose level Middle, time 3 day
[2] = 100 mg/kg, […], dose level Middle, time 7 day
[3] = 100 mg/kg, […], dose level Middle, time 14 day
[4] = 100 mg/kg, […], dose level Middle, time 28 day
[5] = 1000 mg/kg, 72 h, dose level High, time 3 day
[6] = 1000 mg/kg, […], dose level High, time 7 day
[7] = 1000 mg/kg, […], dose level High, time 14 day
[8] = 1000 mg/kg, […], dose level High, time 28 day

With CC(C)OC(=O)C(C)(C)Oc1ccc(C(=O)c2ccc(Cl)cc2)cc1 [FENOFIBRATE] the TERMINAL_BW [1] was 219 g, the Bas [1] was 0.2% and the Eos [1] was 1%. For the same molecule, the Fbg [1] was 242.4 mg/dL, the Ht [1] was 40.5% and the MCHC [1] was 32.9%. The Mono [1] was 3.4%, the Plat [1] was 110.8 x10_4/uL and the RBC [1] was 619.6 x10_4/ul. The Ret [1] was 6.7%, the WBC [1] was 92.3 x10_2/uL and the KIDNEY_L [1] was 1 g. It also gave a KIDNEY_R [1] of 1 g, a KIDNEY_TOTAL [1] of 1.9 g and an ALT [1] of 52 IU/L. For the same molecule, the AST [1] was 77.6 IU/L, the CRE [1] was 0.2 mg/dL and the DBIL [1] was 0.012 mg/dL. It also gave a GLC [1] of 184.2 mg/dL, an IP [1] of 7.5 mg/dL and a K [1] of 4.1 meq/L. The LDH [1] was 90 IU/L, the PL [1] was 118.6 mg/dL and the RALB [1] was 2.6 g/dL. For the same molecule, the TBIL [1] was 0.034 mg/dL, the TC [1] was 58.6 mg/dL and the TG [1] was 41.6 mg/dL. For the same molecule, the TP [1] was 5.5 g/dL, the gamma-GTP [1] was 1.2 IU/L and the TERMINAL_BW [2] was 251.5 g. It also gave a TERMINAL_BW [3] of 311 g, a TERMINAL_BW [4] of 352.5 g and a Bas [2] of 0.2%. The Eos [2] was 1%, the Fbg [2] was 232.2 mg/dL and the Ht [2] was 40.3%. It also gave an MCHC [2] of 32.4%, a Mono [2] of 4% and a Plat [2] of 127.1 x10_4/uL. The RBC [2] was 650.8 x10_4/ul, the Ret [2] was 5.7% and the WBC [2] was 98.5 x10_2/uL. The Bas [3] was 0%, the Eos [3] was 0.8% and the Fbg [3] was 230 mg/dL. The Ht [3] was 40.9%, the MCHC [3] was 32.9% and the Mono [3] was 3.2%. The Plat [3] was 131.7 x10_4/uL, the RBC [3] was 660.8 x10_4/ul and the Ret [3] was 5.1%. It also gave a WBC [3] of 106.3 x10_2/uL, a Bas [4] of 0.8% and an Eos [4] of 1.2%. For the same molecule, the Fbg [4] was 207.2 mg/dL, the Ht [4] was 44.3% and the MCHC [4] was 33.6%. It also gave an MCV [4] of 56.8 fL, a Mono [4] of 3.2% and a Plat [4] of 107.6 x10_4/uL. It also gave an RBC [4] of 780.8 x10_4/ul, a Ret [4] of 2.4% and a WBC [4] of 148.1 x10_2/uL. The KIDNEY_L [2] was 1.1 g, the KIDNEY_R [2] was 1.1 g and the KIDNEY_TOTAL [2] was 2.2 g. For the same molecule, the KIDNEY_L [3] was 1.3 g, the KIDNEY_R [3] was 1.3 g and the KIDNEY_TOTAL [3] was 2.6 g. For the same molecule, the KIDNEY_L [4] was 1.4 g, the KIDNEY_R [4] was 1.4 g and the KIDNEY_TOTAL [4] was 2.8 g. The ALT [2] was 41.2 IU/L, the AST [2] was 67.8 IU/L and the CRE [2] was 0.2 mg/dL. For the same molecule, the DBIL [2] was 0.012 mg/dL, the GLC [2] was 186.8 mg/dL and the IP [2] was 8 mg/dL. The K [2] was 4.3 meq/L, the LDH [2] was 126.2 IU/L and the PL [2] was 119.8 mg/dL. The RALB [2] was 2.8 g/dL, the TBIL [2] was 0.028 mg/dL and the TC [2] was 55.6 mg/dL. It also gave a TG [2] of 47.4 mg/dL, a TP [2] of 5.9 g/dL and a gamma-GTP [2] of 1 IU/L. It also gave an ALT [3] of 43 IU/L, an AST [3] of 69 IU/L and a CRE [3] of 0.2 mg/dL. The DBIL [3] was 0.014 mg/dL, the GLC [3] was 192.8 mg/dL and the IP [3] was 6.9 mg/dL. For the same molecule, the K [3] was 4.1 meq/L, the LDH [3] was 106.8 IU/L and the PL [3] was 135.2 mg/dL. For the same molecule, the RALB [3] was 2.8 g/dL, the TBIL [3] was 0.026 mg/dL and the TC [3] was 57.8 mg/dL. For the same molecule, the TG [3] was 78 mg/dL, the TP [3] was 6 g/dL and the gamma-GTP [3] was 1 IU/L. For the same molecule, the ALT [4] was 47.6 IU/L, the AST [4] was 69.2 IU/L and the CRE [4] was 0.2 mg/dL. It also gave a DBIL [4] of 0.016 mg/dL, a GLC [4] of 179 mg/dL and an IP [4] of 7.6 mg/dL. It also gave a K [4] of 3.8 meq/L, an LDH [4] of 110.8 IU/L and a PL [4] of 129.8 mg/dL. The RALB [4] was 3 g/dL, the TBIL [4] was 0.036 mg/dL and the TC [4] was 55 mg/dL. It also gave a TG [4] of 60.2 mg/dL, a TP [4] of 6.5 g/dL and a gamma-GTP [4] of 1.2 IU/L. For the same molecule, the TERMINAL_BW [5] was 215.9 g, the Bas [5] was 0.4% and the Eos [5] was 1%. For the same molecule, the Fbg [5] was 208.2 mg/dL, the Ht [5] was 39.5% and the MCHC [5] was 33%. It also gave a Mono [5] of 3.6%, a Plat [5] of 105.8 x10_4/uL and an RBC [5] of 610.6 x10_4/ul. The Ret [5] was 5.6%, the WBC [5] was 91.7 x10_2/uL and the KIDNEY_L [5] was 0.9 g. It also gave a KIDNEY_R [5] of 1 g, a KIDNEY_TOTAL [5] of 1.9 g and an ALT [5] of 51.4 IU/L. For the same molecule, the AST [5] was 83.8 IU/L, the CRE [5] was 0.2 mg/dL and the DBIL [5] was 0.022 mg/dL. It also gave a GLC [5] of 176.8 mg/dL, an IP [5] of 7.3 mg/dL and a K [5] of 4.3 meq/L. It also gave an LDH [5] of 105.8 IU/L, a PL [5] of 129.2 mg/dL and an RALB [5] of 2.6 g/dL. For the same molecule, the TBIL [5] was 0.048 mg/dL, the TC [5] was 57 mg/dL and the TG [5] was 33.6 mg/dL. It also gave a TP [5] of 5.4 g/dL, a gamma-GTP [5] of 1 IU/L and a TERMINAL_BW [6] of 248.7 g. For the same molecule, the TERMINAL_BW [7] was 269.5 g, the TERMINAL_BW [8] was 320.8 g and the Bas [6] was 0%. For the same molecule, the Eos [6] was 1%, the Fbg [6] was 222.2 mg/dL and the Ht [6] was 39.1%. It also gave an MCHC [6] of 32.3%, a Mono [6] of 3.4% and a Plat [6] of 147.3 x10_4/uL. It also gave an RBC [6] of 612.2 x10_4/ul, a Ret [6] of 5.8% and a WBC [6] of 113.4 x10_2/uL. The Bas [7] was 0.4%, the Eos [7] was 1% and the Fbg [7] was 192.8 mg/dL. It also gave a Ht [7] of 39.9%, an MCHC [7] of 33.3% and an MCV [7] of 58.7 fL. It also gave a Mono [7] of 3.4%, a Plat [7] of 135.5 x10_4/uL and an RBC [7] of 679.4 x10_4/ul. It also gave a Ret [7] of 5.1%, a WBC [7] of 149.7 x10_2/uL and a Bas [8] of 0.4%. The Eos [8] was 1.2%, the Fbg [8] was 194.2 mg/dL and the Ht [8] was 40.9%. For the same molecule, the MCHC [8] was 33.4%, the MCV [8] was 57.2 fL and the Mono [8] was 3.4%. It also gave a Plat [8] of 117.4 x10_4/uL, an RBC [8] of 716 x10_4/ul and a Ret [8] of 3.9%. It also gave a WBC [8] of 132.1 x10_2/uL, a KIDNEY_L [6] of 1.1 g and a KIDNEY_R [6] of 1.1 g. It also gave a KIDNEY_TOTAL [6] of 2.2 g, a KIDNEY_L [7] of 1.2 g and a KIDNEY_R [7] of 1.2 g. The KIDNEY_TOTAL [7] was 2.4 g, the KIDNEY_L [8] was 1.4 g and the KIDNEY_R [8] was 1.4 g. It also gave a KIDNEY_TOTAL [8] of 2.8 g, an ALT [6] of 45.8 IU/L and an AST [6] of 80.6 IU/L. It also gave a CRE [6] of 0.2 mg/dL, a DBIL [6] of 0.018 mg/dL and a GLC [6] of 178.8 mg/dL. For the same molecule, the IP [6] was 7.4 mg/dL, the K [6] was 4.4 meq/L and the LDH [6] was 122.6 IU/L. The PL [6] was 142 mg/dL, the RALB [6] was 3 g/dL and the TBIL [6] was 0.034 mg/dL. For the same molecule, the TC [6] was 65.8 mg/dL, the TG [6] was 38 mg/dL and the TP [6] was 6.1 g/dL. The gamma-GTP [6] was 1 IU/L, the ALT [7] was 70 IU/L and the AST [7] was 160.6 IU/L. The CRE [7] was 0.2 mg/dL, the DBIL [7] was 0.022 mg/dL and the GLC [7] was 170.2 mg/dL. The IP [7] was 6.6 mg/dL, the K [7] was 4.1 meq/L and the LDH [7] was 226.2 IU/L. It also gave a PL [7] of 138 mg/dL, an RALB [7] of 2.9 g/dL and a TBIL [7] of 0.052 mg/dL. It also gave a TC [7] of 50.6 mg/dL, a TG [7] of 45.4 mg/dL and a TP [7] of 6 g/dL. For the same molecule, the gamma-GTP [7] was 1 IU/L, the ALT [8] was 55.8 IU/L and the AST [8] was 132 IU/L. The CRE [8] was 0.2 mg/dL, the DBIL [8] was 0.024 mg/dL and the GLC [8] was 176 mg/dL. It also gave an IP [8] of 7.3 mg/dL, a K [8] of 3.7 meq/L and an LDH [8] of 205.2 IU/L. For the same molecule, the PL [8] was 139.8 mg/dL, the RALB [8] was 2.9 g/dL and the TBIL [8] was 0.06 mg/dL. The TC [8] was 62.4 mg/dL, the TG [8] was 47.6 mg/dL and the TP [8] was 6.2 g/dL. The gamma-GTP [8] was 1.2 IU/L.
